Laboratory results published in US10632125B2, “MTH1 inhibitors for treatment of inflammatory and autoimmune conditions” (THOMAS HELLEDAYS STIFTELSE FÖR MEDICINSK FORSKNING, priority 2014, dated 2020).

Molecular target: MTH1 (Homo sapiens, UniProt P36639)
Assay: MTH1 enzymatic assay (malachite green, coupled to pyrophosphatase)
Assay type: biochemical
Conditions: dGTP 100 μM, MTH1 6 nM; 96- or 384-well format; read-out: IC50

| Compound | IC50 [µM] |
| --- | --- |
| COc1cc(C)c(NCCNc2cc(-c3cccc(C)c3C)nc(N)n2)cn1 [Example 490, 6-(2,3-dimethylphenyl)-4-N-{2-[(6-methoxy-4-methylpyridin-3-yl)amino]ethyl}pyrimidine-2,4-diamine] | < 0.2 |
| NC(=O)COc1cccc(-c2cc(NCCc3ccc(Cl)cc3)nc(N)n2)c1 [Example 498, 2-[3-(2-amino-6-{[2-(4-chlorophenyl)ethyl]amino}pyrimidin-4-yl)phenoxy]acetamide] | < 0.2 |
| Cc1cccc(-c2cc(NCCNc3cnccn3)nc(N)n2)c1C [Example 500, 6-(2,3-dimethylphenyl)-4-N-{2-[(pyrazin-2-yl)amino]ethyl}pyrimidine-2,4-diamine] | < 0.2 |
| Cc1cccc(-c2cc(NCCNc3cc(Cl)ncn3)nc(N)n2)c1C [Example 501, 4-N-{2-[(6-chloropyrimidin-4-yl)amino]ethyl}-6-(2,3-dimethylphenyl)pyrimidine-2,4-diamine] | < 0.2 |
| CNc1cc(-c2ccccc2CO)nc(N)n1 [Example 508, {2-[2-amino-6-(methylamino)pyrimidin-4-yl]phenyl}methanol] | < 0.2 |
| Nc1nc(NCCc2ccc(S(N)(=O)=O)cc2)cc(-c2ccccc2CO)n1 [Example 509, 4-[2-({2-amino-6-[2-(hydroxymethyl)phenyl]pyrimidin-4-yl}amino)ethyl]benzene-1-sulfonamide] | < 0.2 |
| Cc1cccc(-c2cc(NCCNc3cc(C(N)=O)ccn3)nc(N)n2)c1C [Example 514, 2-[(2-{[2-amino-6-(2,3-dimethylphenyl)pyrimidin-4-yl]amino}ethyl)amino]pyridine-4-carboxamide] | < 0.2 |
| Cc1c(NC(=O)c2ccc(Cl)cc2O)cccc1-c1cc(NCCc2ccc(S(C)(=O)=O)cc2)nc(N)n1 [Example 516, N-[3-(2-amino-6-{[2-(4-methanesulfonylphenyl)ethyl]amino}pyrimidin-4-yl)-2-methylphenyl]-4-chloro-2-hydroxybenzamide] | < 0.2 |
| Cc1cccc(-c2cc(NCCc3c[nH]c4ccc(O)cc34)nc(N)n2)c1C [Example 517, 3-(2-{[2-amino-6-(2,3-dimethylphenyl)pyrimidin-4-yl]amino}ethyl)-1H-indol-5-ol] | < 0.2 |
| Cc1cccc(-c2cc(NCCc3c[nH]c4ccc(OCc5ccccc5)cc34)nc(N)n2)c1C [Example 518, 4-N-{2-[5-(benzyloxy)-1H-indol-3-yl]ethyl}-6-(2,3-dimethylphenyl)pyrimidine-2,4-diamine] | < 0.2 |
| Cc1cccc(-c2cc(NCCc3c[nH]c4ccc(Br)cc34)nc(N)n2)c1C [Example 519, 4-N-[2-(5-bromo-1H-indol-3-yl)ethyl]-6-(2,3-dimethylphenyl)pyrimidine-2,4-diamine] | < 0.2 |
| COc1ccc2[nH]cc(CCNc3cc(-c4cccc(C)c4C)nc(N)n3)c2c1 [Example 520, 6-(2,3-dimethylphenyl)-4-N-[2-(5-methoxy-1H-indol-3-yl)ethyl]pyrimidine-2,4-diamine] | < 0.2 |
| Cc1cccc(-c2cc(NCCc3c[nH]c4c(C)cccc34)nc(N)n2)c1C [Example 521, 6-(2,3-dimethylphenyl)-4-N-[2-(7-methyl-1H-indol-3-yl)ethyl]pyrimidine-2,4-diamine] | < 0.2 |
| Cc1cccc(-c2cc(NCCc3c[nH]c4c(OCc5ccccc5)cccc34)nc(N)n2)c1C [Example 522, 4-N-{2-[7-(benzyloxy)-1H-indol-3-yl]ethyl}-6-(2,3-dimethylphenyl)pyrimidine-2,4-diamine] | < 0.2 |
| COc1ccc2c(CCNc3cc(-c4cccc(C)c4C)nc(N)n3)c[nH]c2c1 [Example 523, 6-(2,3-dimethylphenyl)-4-N-[2-(6-methoxy-1H-indol-3-yl)ethyl]pyrimidine-2,4-diamine] | < 0.2 |
| CC1CC1Nc1cc(-c2cccc(Cl)c2Cl)nc(N)n1 (stereo not drawn) [Example 524, 6-(2,3-dichlorophenyl)-4-N-(2-methylcyclopropyl)pyrimidine-2,4-diamine] | < 0.2 |
| Cc1cccc(-c2cc(NCCNc3ccc(-c4nnn[nH]4)cc3)nc(N)n2)c1C [Example 543, 6-(2,3-dimethylphenyl)-4-N-(2-{[4-(1H-1,2,3,4-tetrazol-5-yl)phenyl]amino}ethyl)pyrimidine-2,4-diamine] | < 0.2 |
| COc1ccc(NCCNc2cc(-c3cccc(C)c3C)nc(N)n2)cc1S(=O)(=O)O [Example 545, 5-[(2-{[2-amino-6-(2,3-dimethylphenyl)pyrimidin-4-yl]amino}ethyl)amino]-2-methoxybenzene-1-sulfonic Acid] | < 0.2 |
| Nc1nc(NCCc2ccc(S(N)(=O)=O)cc2)cc(C2=CCN(S(=O)(=O)C3CC3)CC2)n1 [Example 555, 4-[2-({2-amino-6-[1-(cyclopropanesulfonyl)-1,2,3,6-tetrahydropyridin-4-yl]pyrimidin-4-yl}amino)ethyl]benzene-1-sulfonamide] | < 0.2 |
| Cc1cccc(-c2cc(NCCNc3cc(-c4cccc(C)c4C)nc(N)n3)nc(N)n2)c1C [Example 561, 4-N-(2-{[2-amino-6-(2,3-dimethylphenyl)pyrimidin-4-yl]amino}ethyl)-6-(2,3-dimethylphenyl)pyrimidine-2,4-diamine] | < 0.2 |
| Cc1c(Cl)cccc1-c1cc(NC2CC2C)nc(N)n1 (stereo not drawn) [Example 581, 6-(3-chloro-2-methylphenyl)-4-N-(2-methylcyclopropyl)pyrimidine-2,4-diamine] | < 0.2 |

| Compound | IC50 [µM] |
| --- | --- |
| Cc1cccc(-c2cc(NC3CNC3)nc(N)n2)c1C [Example 589, 4-N-(azetidin-3-yl)-6-(2,3-dimethylphenyl)pyrimidine-2,4-diamine] | 2 to 10 |
| Cc1c(Cl)cccc1-c1cc(NCCc2ccc(NC(=O)C3CC3)cc2)nc(N)n1 [Example 597, N-[4-(2-{[2-amino-6-(3-chloro-2-methylphenyl)pyrimidin-4-yl]amino}ethyl)phenyl]cyclopropanecarboxamide] | < 0.2 |
| Cc1cccc(-c2cc(NCCc3cccs3)nc(N)n2)c1C [Example 598, 6-(2,3-dimethylphenyl)-4-N-[2-(thiophen-2-yl)ethyl]pyrimidine-2,4-diamine] | < 0.2 |
| Cc1c(Cl)cccc1-c1cc(NCCc2ccc(Cl)c(Cl)c2)nc(N)n1 [Example 599, 6-(3-chloro-2-methylphenyl)-4-N-[2-(3,4-dichlorophenyl)ethyl]pyrimidine-2,4-diamine] | < 0.2 |
| Cc1c(Cl)cccc1-c1cc(NCCc2ccc(Cl)cc2Cl)nc(N)n1 [Example 600, 6-(3-chloro-2-methylphenyl)-4-N-[2-(2,4-dichlorophenyl)ethyl]pyrimidine-2,4-diamine] | < 0.2 |
| Cc1c(Cl)cccc1-c1cc(NCCc2ccc(C#N)cc2)nc(N)n1 [Example 625, 4-(2-{[2-amino-6-(3-chloro-2-methylphenyl)pyrimidin-4-yl]amino}ethyl)benzonitrile] | < 0.2 |
| CNc1cc(C#Cc2ccccc2)nc(N)n1 [Example 626, 4-N-methyl-6-(2-phenylethynyl)pyrimidine-2,4-diamine] | < 0.2 |
| Cc1c(Cl)cccc1-c1cc(NCCNc2ccc3c(=O)[nH]cnc3c2)nc(N)n1 [Example 632, 7-[2-[[2-amino-6-(3-chloro-2-methyl-phenyl)pyrimidin-4-yl]amino]ethylamino]-3H-quinazolin-4-one] | < 0.2 |
| Cc1c(Cl)cccc1-c1cc(NCCc2ccc(N)cc2)nc(N)n1 [Example 642, N4-[2-(4-aminophenyl)ethyl]-6-(3-chloro-2-methyl-phenyl)pyrimidine-2,4-diamine] | < 0.2 |
| Cc1c(Cl)cccc1-c1cc(NCCNS(=O)(=O)c2cccc(F)c2)nc(N)n1 [Example 660, N-[2-[[2-amino-6-(3-chloro-2-methyl-phenyl)pyrimidin-4-yl]amino]ethyl]-3-fluoro-benzenesulfonamide] | < 0.2 |
| Cc1c(Cl)cccc1-c1cc(NCCNC(=O)Nc2cccc(F)c2)nc(N)n1 [Example 663, 1-[2-[[2-amino-6-(3-chloro-2-methyl-phenyl)pyrimidin-4-yl]amino]ethyl]-3-(3-fluorophenyl)urea] | < 0.2 |
| Cc1c(Cl)cccc1-c1cc(NC2CN(c3ccc(S(N)(=O)=O)cc3)C2)nc(N)n1 [Example 667] | 2 to 10 |
| Cc1c(Cl)cccc1-c1cc(NCCCNC(=O)OC(C)(C)C)nc(N)n1 [Example 668, tert-butyl N-[3-[[2-amino-6-(3-chloro-2-methyl-phenyl)pyrimidin-4-yl]amino]propyl]carbamate] | < 0.2 |
| Cc1c(Cl)cccc1-c1cc(NCCCCc2ccccc2)nc(N)n1 [Example 680, 6-(3-chloro-2-methyl-phenyl)-N4-(4-phenylbutyl)pyrimidine-2,4-diamine] | < 0.2 |
| Cc1c(Cl)cccc1-c1cc(NCCC2=CCCCC2)nc(N)n1 [Example 681, 6-(3-chloro-2-methyl-phenyl)-N4-[2-(cyclohexen-1-yl)ethyl]pyrimidine-2,4-diamine] | < 0.2 |
| C=CCCNc1cc(-c2cccc(Cl)c2C)nc(N)n1 [Example 682, N4-but-3-enyl-6-(3-chloro-2-methyl-phenyl)pyrimidine-2,4-diamine] | < 0.2 |
| Cc1c(Cl)cccc1-c1cc(NCCNc2cccc3c(S(=O)(=O)O)cccc23)nc(N)n1 [Example 683, 5-[2-[[2-amino-6-(3-chloro-2-methyl-phenyl)pyrimidin-4-yl]amino]ethylamino]naphthalene-1-sulfonic acid] | < 0.2 |
| Cc1c(Cl)cccc1-c1cc(NCCOCC2CC2)nc(N)n1 [Example 684, 6-(3-chloro-2-methyl-phenyl)-N4-[2-(cyclopropylmethoxy)ethyl]pyrimidine-2,4-diamine] | < 0.2 |
| Cc1c(Cl)cccc1-c1cc(NCC=C(F)F)nc(N)n1 [Example 686, 6-(3-chloro-2-methyl-phenyl)-N4-(3,3-difluoroallyl)pyrimidine-2,4-diamine] | < 0.2 |
| Cc1c(Cl)cccc1-c1cc(NCCC(F)(F)Br)nc(N)n1 [Example 687, N4-(3-bromo-3,3-difluoro-propyl)-6-(3-chloro-2-methyl-phenyl)pyrimidine-2,4-diamine] | < 0.2 |
| Cc1c(Cl)cccc1-c1cc(NCCSCCc2ccccc2)nc(N)n1 [Example 690, 6-(3-chloro-2-methylphenyl)-N4-{2-[(2-phenylethyl)sulfanyl]ethyl}pyrimidine-2,4-diamine] | < 0.2 |
